Columns and labels:
MDR1 (P-gp) = MDR1 (P-gp) (Homo sapiens (Human), UniProt P08183); assay: in vitro; settings: pig, LLC-PK1
BCRP [1] = assay: BCRP MDCKII efflux assay (Assay 7); type: in vitro ADME; settings: dog; efflux ratio Papp(B-A)/Papp(A-B), BCRP MDCKII cells; read-out: Assay 7 Pe Ratio
Protocol: (§1) Assay conditions included with and without the BCRP-specific inhibitor, KO143, at a concentration of 0.3 μM to ascertain the contribution of BCRP to the efflux value of the test compound.
(§2) Final organic concentration in the assay was 1%.

ErbB2 WT = ErbB2 WT (Homo sapiens (Human), UniProt P04626); assay: ErbB Enzyme Assay (HTRF KinEASE-TK), Assay 2; type: biochemical
[2] = target: ErbB2 with Exon 20 YVMA insertion (HER2-YVMA) (Homo sapiens (Human), UniProt P04626, INS775YVMA); assay: Cellular Phosphorylation Assay, Assay 4 (constitutive ErbB2 phosphorylation, NIH 3T3 cells); type: cell-based
EGFR = EGFR (Homo sapiens (Human), UniProt P00533); assay: ErbB Enzyme Assay (HTRF KinEASE-TK), Assay 3; type: biochemical
EGFR wild type (EGFR WT) = EGFR wild type (EGFR WT) (Homo sapiens (Human), UniProt P00533); assay: Cellular Phosphorylation Assay, Assay 5 (EGF-stimulated EGFR phosphorylation, NIH 3T3 cells); type: cell-based
[3] = target: BCRP transfected MDCKII cells (Homo sapiens (Human), UniProt Q9UNQ0); assay: BCRP MDCKII efflux assay (Assay 7); type: in vitro ADME; settings: efflux ratio Papp(B-A)/Papp(A-B)
Protocol: as §1, §2

[4] = target: MDR1 (P-gp) transfected LLC-PK1 cells (Homo sapiens (Human), UniProt P08183)
BCRP [5] = target: BCRP (Homo sapiens (Human), UniProt Q9UNQ0); assay: BCRP MDCKII efflux assay (Assay 7); type: in vitro ADME; settings: dog; efflux ratio Papp(B-A)/Papp(A-B), BCRP MDCKII cells; read-out: Assay 7 Pe Ratio
Protocol: as §1, §2

[6] = EGF-stimulated EGFR WT phosphorylation
[7] = cellular ErbB2 YVMA phosphorylation
[8] = cellular EGFR WT phosphorylation, EGF-stimulated

Sequence of ErbB2 with Exon 20 YVMA insertion (HER2-YVMA) (P04626 other isoform, or with tags, fused parts or gaps ins YVMA behind 775): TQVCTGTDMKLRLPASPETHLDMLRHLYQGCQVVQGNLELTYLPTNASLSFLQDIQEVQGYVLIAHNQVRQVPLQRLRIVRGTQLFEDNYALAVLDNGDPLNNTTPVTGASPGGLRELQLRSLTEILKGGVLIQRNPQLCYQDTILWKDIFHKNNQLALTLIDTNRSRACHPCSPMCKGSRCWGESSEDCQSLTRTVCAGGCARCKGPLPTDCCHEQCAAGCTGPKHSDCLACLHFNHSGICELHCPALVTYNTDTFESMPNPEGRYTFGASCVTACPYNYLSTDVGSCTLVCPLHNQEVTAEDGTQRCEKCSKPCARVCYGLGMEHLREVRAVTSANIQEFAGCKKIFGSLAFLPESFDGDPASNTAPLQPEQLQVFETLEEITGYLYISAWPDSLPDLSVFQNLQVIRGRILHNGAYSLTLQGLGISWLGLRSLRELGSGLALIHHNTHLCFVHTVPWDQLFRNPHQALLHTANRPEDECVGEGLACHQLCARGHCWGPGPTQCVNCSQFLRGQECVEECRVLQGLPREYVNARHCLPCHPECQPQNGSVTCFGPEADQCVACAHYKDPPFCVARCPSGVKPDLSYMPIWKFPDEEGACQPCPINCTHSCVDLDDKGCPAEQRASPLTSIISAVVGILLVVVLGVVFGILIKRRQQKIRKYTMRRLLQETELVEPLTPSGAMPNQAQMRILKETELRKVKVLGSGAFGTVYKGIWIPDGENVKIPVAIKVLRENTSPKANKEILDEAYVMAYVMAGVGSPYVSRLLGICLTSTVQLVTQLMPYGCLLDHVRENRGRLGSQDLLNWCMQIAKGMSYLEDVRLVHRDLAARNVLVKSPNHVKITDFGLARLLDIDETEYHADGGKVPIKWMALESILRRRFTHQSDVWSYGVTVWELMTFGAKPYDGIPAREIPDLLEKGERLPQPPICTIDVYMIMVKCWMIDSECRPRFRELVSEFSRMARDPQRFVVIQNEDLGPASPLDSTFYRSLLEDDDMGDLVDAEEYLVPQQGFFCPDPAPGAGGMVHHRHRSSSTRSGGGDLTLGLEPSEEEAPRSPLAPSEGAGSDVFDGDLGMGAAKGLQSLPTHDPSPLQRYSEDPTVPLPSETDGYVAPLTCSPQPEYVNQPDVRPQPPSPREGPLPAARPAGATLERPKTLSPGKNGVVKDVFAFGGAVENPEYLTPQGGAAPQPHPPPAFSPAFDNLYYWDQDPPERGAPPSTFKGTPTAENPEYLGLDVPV
Sequence of MDR1 (P-gp) (P08183 whole entry): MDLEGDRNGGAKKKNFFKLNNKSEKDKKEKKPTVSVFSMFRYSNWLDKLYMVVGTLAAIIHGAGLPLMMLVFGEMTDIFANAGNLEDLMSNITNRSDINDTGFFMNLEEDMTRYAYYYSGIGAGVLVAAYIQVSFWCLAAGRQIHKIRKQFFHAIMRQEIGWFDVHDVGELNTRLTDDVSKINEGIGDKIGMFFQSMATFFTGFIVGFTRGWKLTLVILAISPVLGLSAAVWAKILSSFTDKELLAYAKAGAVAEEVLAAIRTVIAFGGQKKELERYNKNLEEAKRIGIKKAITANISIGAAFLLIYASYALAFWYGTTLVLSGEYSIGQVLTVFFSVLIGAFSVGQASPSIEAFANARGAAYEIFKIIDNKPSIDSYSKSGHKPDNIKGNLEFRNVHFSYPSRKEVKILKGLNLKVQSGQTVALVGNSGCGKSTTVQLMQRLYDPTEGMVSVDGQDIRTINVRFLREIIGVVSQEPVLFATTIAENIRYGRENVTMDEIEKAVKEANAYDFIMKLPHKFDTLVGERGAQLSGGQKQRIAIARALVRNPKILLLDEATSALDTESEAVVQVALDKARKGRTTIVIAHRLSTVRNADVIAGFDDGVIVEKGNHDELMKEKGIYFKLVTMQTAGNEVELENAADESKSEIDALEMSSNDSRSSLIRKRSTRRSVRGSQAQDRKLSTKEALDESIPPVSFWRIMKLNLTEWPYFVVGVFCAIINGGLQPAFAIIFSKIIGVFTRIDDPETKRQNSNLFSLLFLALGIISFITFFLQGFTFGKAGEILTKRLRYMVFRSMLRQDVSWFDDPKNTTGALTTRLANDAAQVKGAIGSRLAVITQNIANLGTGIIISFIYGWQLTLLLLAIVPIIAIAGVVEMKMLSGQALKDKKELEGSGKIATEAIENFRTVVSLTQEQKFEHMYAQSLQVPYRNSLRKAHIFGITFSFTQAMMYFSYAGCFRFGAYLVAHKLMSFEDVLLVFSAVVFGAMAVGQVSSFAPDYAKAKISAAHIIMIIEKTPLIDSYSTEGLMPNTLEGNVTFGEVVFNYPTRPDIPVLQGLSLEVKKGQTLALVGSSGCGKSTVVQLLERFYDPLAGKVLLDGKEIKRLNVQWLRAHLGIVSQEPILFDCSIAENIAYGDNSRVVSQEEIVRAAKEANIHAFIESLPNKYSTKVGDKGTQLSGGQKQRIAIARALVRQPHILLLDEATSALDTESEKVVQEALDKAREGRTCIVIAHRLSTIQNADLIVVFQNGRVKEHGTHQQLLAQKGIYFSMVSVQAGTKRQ
Sequence of ErbB2 WT (P04626 23-1255): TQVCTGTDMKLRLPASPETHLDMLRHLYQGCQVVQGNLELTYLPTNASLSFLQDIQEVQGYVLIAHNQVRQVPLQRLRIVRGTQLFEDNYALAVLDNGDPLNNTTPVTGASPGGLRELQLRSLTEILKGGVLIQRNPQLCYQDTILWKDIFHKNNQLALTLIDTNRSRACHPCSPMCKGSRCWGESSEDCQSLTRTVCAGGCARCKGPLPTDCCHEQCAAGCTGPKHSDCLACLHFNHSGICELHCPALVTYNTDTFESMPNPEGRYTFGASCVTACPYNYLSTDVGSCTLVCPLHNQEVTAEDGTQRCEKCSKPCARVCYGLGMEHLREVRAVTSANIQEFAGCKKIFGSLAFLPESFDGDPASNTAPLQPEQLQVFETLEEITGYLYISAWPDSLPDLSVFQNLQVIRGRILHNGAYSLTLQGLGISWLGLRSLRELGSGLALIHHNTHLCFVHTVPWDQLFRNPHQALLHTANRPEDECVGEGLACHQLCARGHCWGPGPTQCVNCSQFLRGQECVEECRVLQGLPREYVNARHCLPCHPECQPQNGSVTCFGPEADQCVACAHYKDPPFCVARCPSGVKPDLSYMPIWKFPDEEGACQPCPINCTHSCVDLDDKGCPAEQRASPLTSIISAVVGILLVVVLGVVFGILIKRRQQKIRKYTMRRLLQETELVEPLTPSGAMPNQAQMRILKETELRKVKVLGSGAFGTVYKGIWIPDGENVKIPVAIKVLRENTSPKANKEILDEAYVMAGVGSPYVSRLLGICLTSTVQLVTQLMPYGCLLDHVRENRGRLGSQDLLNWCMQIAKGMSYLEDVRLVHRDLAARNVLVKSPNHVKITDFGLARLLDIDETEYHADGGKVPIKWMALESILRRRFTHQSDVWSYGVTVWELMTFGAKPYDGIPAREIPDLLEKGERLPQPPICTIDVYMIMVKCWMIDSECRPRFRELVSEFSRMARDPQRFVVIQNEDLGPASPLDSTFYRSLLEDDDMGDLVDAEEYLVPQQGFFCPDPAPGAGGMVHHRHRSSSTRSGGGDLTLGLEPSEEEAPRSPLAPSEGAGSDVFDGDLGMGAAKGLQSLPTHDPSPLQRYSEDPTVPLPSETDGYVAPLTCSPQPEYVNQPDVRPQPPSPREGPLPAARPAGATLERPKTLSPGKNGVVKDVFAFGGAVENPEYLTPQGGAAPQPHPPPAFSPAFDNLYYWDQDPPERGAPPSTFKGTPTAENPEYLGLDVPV
Sequence of EGFR (P00533 25-1210): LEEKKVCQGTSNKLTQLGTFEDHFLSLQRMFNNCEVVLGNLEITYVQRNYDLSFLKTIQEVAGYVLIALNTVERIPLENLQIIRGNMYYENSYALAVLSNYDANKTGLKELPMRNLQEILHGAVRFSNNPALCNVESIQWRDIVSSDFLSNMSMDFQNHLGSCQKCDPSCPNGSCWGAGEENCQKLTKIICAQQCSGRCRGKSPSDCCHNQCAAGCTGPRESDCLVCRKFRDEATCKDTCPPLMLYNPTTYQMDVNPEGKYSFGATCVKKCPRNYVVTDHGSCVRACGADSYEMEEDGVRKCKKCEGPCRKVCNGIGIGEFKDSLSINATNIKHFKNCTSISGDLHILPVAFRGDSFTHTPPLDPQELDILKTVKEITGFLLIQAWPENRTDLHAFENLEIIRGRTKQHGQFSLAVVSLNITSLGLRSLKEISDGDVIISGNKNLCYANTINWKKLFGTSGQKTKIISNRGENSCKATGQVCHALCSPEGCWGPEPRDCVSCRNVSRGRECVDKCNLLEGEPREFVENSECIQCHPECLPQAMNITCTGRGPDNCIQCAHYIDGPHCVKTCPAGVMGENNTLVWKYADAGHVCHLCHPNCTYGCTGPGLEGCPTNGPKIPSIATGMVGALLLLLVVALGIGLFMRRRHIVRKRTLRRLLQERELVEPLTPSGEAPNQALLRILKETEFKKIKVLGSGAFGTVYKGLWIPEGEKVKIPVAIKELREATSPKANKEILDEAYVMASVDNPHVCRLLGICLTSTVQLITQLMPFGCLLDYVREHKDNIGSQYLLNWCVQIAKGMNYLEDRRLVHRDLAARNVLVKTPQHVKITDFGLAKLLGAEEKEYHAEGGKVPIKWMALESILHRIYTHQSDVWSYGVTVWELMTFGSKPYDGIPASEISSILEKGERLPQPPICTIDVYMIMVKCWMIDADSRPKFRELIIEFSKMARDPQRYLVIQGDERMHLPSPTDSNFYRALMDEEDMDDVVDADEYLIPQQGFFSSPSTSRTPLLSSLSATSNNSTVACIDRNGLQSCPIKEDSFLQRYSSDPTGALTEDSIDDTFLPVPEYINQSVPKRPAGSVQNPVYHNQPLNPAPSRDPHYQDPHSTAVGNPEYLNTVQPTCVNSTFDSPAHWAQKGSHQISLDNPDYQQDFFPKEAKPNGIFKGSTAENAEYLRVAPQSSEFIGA

Row | efflux ratio at 2 h, 1 µM (MDR1 (P-gp)) | efflux ratio at 2 h, 1 µM (BCRP [1]) | IC50 (ErbB2 WT; ErbB2 WT enzyme) | IC50 ([2]; ErbB2 YVMA phosphorylation) | IC50 (EGFR; EGFR enzyme) | IC50 (EGFR wild type (EGFR WT); [6]) | efflux ratio at 2 h, 1 µM (BCRP [5]) | SMILES | Assay 7 Pe Ratio [3] | efflux ratio [4] | IC50 (ErbB2 WT; ErbB2 WT enzyme assay) | IC50 [2, 7] | IC50 (EGFR; EGFR enzyme assay) | IC50 (EGFR wild type (EGFR WT); [8])
1 | 1.2 | 0.6 | 25 nM | 11.7 nM | 650 nM | 1070 nM | – | C=CC(=O)N1CCC[C@@H](c2ccc3ncnc(Nc4ccc(Oc5ccc6c(c5)ncn6C)c(C)c4F)c3n2)C1 (racemic) [Example 144, rac-(R)-1-(3-(4-((2-fluoro-3-methyl-4-((1-methyl-1H-benzo[d]imidazol-5-yl)oxy)phenyl)amino)pyrido[3,2-d]pyrimidin-6-yl)piperidin-1-yl)prop-2-en-1-one] | – | – | – | – | – | –
2 | 1.1 | 0.6 | 13.3 nM | 16.7 nM | 401 nM | 1450 nM | – | C=CC(=O)N1C[C@@H]2C[C@H]1C[C@H]2c1ccc2ncnc(Nc3ccc(Oc4ccc5c(c4)ncn5C)c(C)c3F)c2n1 (racemic) [Example 203, rac-1-((1S,4R,5R)-5-(4-((2-fluoro-3-methyl-4-((1-methyl-1H-benzo[d]imidazol-5-yl)oxy)phenyl)amino)pyrido[3,2-d]pyrimidin-6-yl)-2-azabicyclo[2.2.1]heptan-2-yl)prop-2-en-1-one] | – | – | – | – | – | –
3 | 0.7 | – | – | – | – | – | 2 | C=CC(=O)N1C[C@H]2CC[C@@H]1[C@H](c1ccc3ncnc(Nc4ccc(Oc5cnc6c(c5)ncn6C)c(C)c4F)c3n1)C2 [Example 426] | – | – | 183 nM | 33.2 nM | ≥ 10000 nM | ≥ 5000 nM
4 | 1.1 | – | – | – | – | – | 3.8 | C=CC(=O)N1CCN(c2ccc3ncnc(Nc4ccc(Oc5cnc6c(c5)ncn6C)c(C)c4F)c3n2)C[C@H]1C [Example 433] | – | – | 101 nM | 9.4 nM | 4830 nM | 2890 nM
5 | 1 | – | – | – | – | – | 1.9 | C=CC(=O)N1[C@H](C)CN(c2ccc3ncnc(Nc4ccc(Oc5cnc6c(c5)ncn6C)c(C)c4F)c3n2)C[C@@H]1C [Example 442] | – | – | 464 nM | 29.7 nM | ≥ 10000 nM | ≥ 5000 nM

Row | SMILES | efflux ratio at 2 h, 1 µM (MDR1 (P-gp)) | efflux ratio at 2 h, 1 µM (BCRP [1]) | IC50 (ErbB2 WT; ErbB2 WT enzyme) | IC50 ([2]; ErbB2 YVMA phosphorylation) | IC50 (EGFR; EGFR enzyme) | IC50 (EGFR wild type (EGFR WT); [6]) | efflux ratio at 2 h, 1 µM (BCRP [5]) | Assay 7 Pe Ratio [3] | efflux ratio [4] | IC50 (ErbB2 WT; ErbB2 WT enzyme assay) | IC50 [2, 7] | IC50 (EGFR; EGFR enzyme assay) | IC50 (EGFR wild type (EGFR WT); [8])
6 | C=CC(=O)N1[C@@H]2CC[C@H]1C[C@@H](c1ccc3ncnc(Nc4ccc(Oc5cnc6c(c5)ncn6C)c(C)c4F)c3n1)C2 [Example 227, 1-((1R,3r,5S)-3-(4-((2-fluoro-3-methyl-4-((3-methyl-3H-imidazo[4,5-b]pyridin-6-yl)oxy)phenyl)amino)pyrido[3,2-d]pyrimidin-6-yl)-8-azabicyclo[3.2.1]octan-8-yl)prop-2-en-1-one] | – | – | 138 nM | 26.8 nM | 3790 nM | 5000 nM | – | 5.5 | 1.2 | – | – | – | –
7 | C=CC(=O)N1[C@@H]2CC[C@H]1[C@H](c1ccc3ncnc(Nc4ccc(Oc5cnc6c(c5)ncn6C)c(C)c4F)c3n1)C2 [Example 419] | 0.8 | – | – | – | – | – | 2.2 | – | – | 42.3 nM | 21.5 nM | 1040 nM | ≥ 5000 nM
8 | C=CC(=O)N1CC2CC(C1)N2c1ccc2ncnc(Nc3ccc(Oc4cnc5c(c4)ncn5C)c(C)c3F)c2n1 [Example 435] | 1.5 | – | – | – | – | – | 2 | – | – | 314 nM | 16 nM | 587 nM | 1140 nM
9 | C=CC(=O)N1CC2CCC(C1)N2c1ccc2ncnc(Nc3cc(C)c(Oc4ccn5ncnc5c4)cc3F)c2n1 [Example 454] | 0.8 | 0.6 | – | – | – | – | – | – | – | 35.6 nM | 14.1 nM | 1180 nM | 680 nM

— US12447153B2, “HER2 mutation inhibitors” (Array BioPharma Inc., priority 2021, dated 2025)
